In brackets after ≈: the same amount, converted by molar mass. Numbered stars: 1 amine (or outer) side, 2 acyl side, 3 side chain; on linkers, the order of the positions; unused ones are H or OH. Square brackets hold non-standard residues; d marks the D form. Peptide text beside a SMILES is read from it. * marks the point of attachment. N(1S-cyclohexylethyl)Gly = C[C@H](NCC(=O)O)C1CCCCC1; N(3-imidazol-1-ylpropyl)Gly = O=C(O)CNCCCn1ccnc1; Gly(Nα-4-Cl-benzyl) = O=C(O)CNCc1ccc(Cl)cc1; N(4-Br-benzyl)Gly = O=C(O)CNCc1ccc(Br)cc1; N(2-thienylmethyl)Gly = O=C(O)CNCc1cccs1; N(tridecyl)Gly = CCCCCCCCCCCCCNCC(=O)O; N(4-F-Bzl)Gly = O=C(O)CNCc1ccc(F)cc1; X1 = CC(c1ccccc1)N(CC(=O)[*:2])[*:1]; Gly(N-2-aminoethyl) = NCCNCC(=O)O; Myristoyl = CCCCCCCCCCCCCC(=O)*; NFurfurylGly = O=C(O)CNCc1ccco1; Gly(N(CH2)3NH2) = NCCCNCC(=O)O; Gly(N-cHex) = O=C(O)CNC1CCCCC1; Nphe = O=C(O)CNCc1ccccc1; NPrGly = CCCNCC(=O)O; Nlys = NCCCCNCC(=O)O; Sar = CNCC(=O)O
How the values were obtained:
C. neoformans = assay type: cell-based, Cryptococcus neoformans; conditions: 72 h
From the text: (§1) This screening led to the discovery of RMG9-11 (FIG. 2C). The minimum inhibitory concentration (MIC) of resynthesized RMG9-11 was initially determined against C. albicans, C. neoformans, and the ESKAPE bacteria via CSLI guidelines (CLSI. Methods for Dilution Antimicrobial Susceptibility Tests for Bacteria That Grow Aerobically, 11th Edition. Clinical and Laboratory Standards Institute (2018); CLSI. Reference method for broth dilution antifungal susceptibility testing of yeasts; approved standard-third edition; CLSI document M27-A3. Clinical and Laboratory Standards Institute (2008)). […] C. albicans clinical isolates include a reference strain (M1), fluconazole susceptible strains (M4 and M6), and fluconazole resistant strains (M2, M3, M5, and M7). ATCC 64124 is multidrug resistant C. albicans strain that is resistant to amphotericin B, fluconazole, caspofungin, and flucytosine. All MICs were performed under CSLI guidelines in triplicate on at least three different days.
(§2) The minimum inhibitory concentration (MIC) of peptoids against fungal pathogens C. albicans and C. neoformans was determined following CLSI guidelines (Reference method for broth dilution antifungal susceptibility testing of yeasts; approved standard-third edition; CLSI document M27-A3.” CLSI. 2008.). Colonies were transferred from a streaked YPD plate to 0.85% saline to reach an OD530 between 0.18 and 0.25. This inoculant was diluted 1:100 into RPMI-MOPS and then further diluted 1:20 into RPMI-MOPS. 198 μL of inoculant was seeded into each well of a 96 well black-walled plate. 2-fold serial dilutions of 100× peptoid solutions were prepared in water and 2 μL of peptoid were added to each well in triplicate. […] MIC was defined as the lowest concentration of compound preventing fungal growth. This assay was repeated 3 times on separate days with each compound.

in vitro = assay type: cell-based; conditions: human, HepG2 hepatocellular carcinoma cells
Procedure: The mammalian cell lines that were tested (HepG2, 3T3, and HaCat) were incubated with RMG9-11 for 72 hours and cell viability was determined via mitochondrial activity using an MTT reduction assay where viable cells reduce MTT to formazan. Toxicity is reported as the concentration of the peptoid that results in a 50% reduction in viable cells, termed toxicity dose 50% or TD50. […] SR is defined as the TD50 divided by MIC and provides a measure of the therapeutic window for a compound. Typically for most lead compounds that would continue through development and optimization, a SR of 10 is preferred while an SR of 100 is more desirable for a compound moving into preclinical animal model evaluation.
Hepatocellular carcinoma (HepG2), mouse fibroblast (3T3), and human keratinocyte (HaCat) cells were cultured in Dulbeco modified eagle media (DMEM) containing 10% fetal bovine serum (FBS) and 1% penicillin, streptomycin, and glutamine (PSG) at 37° C. and 5% CO2. Cells were collected and adjusted to […] to 4×10^5 cells/mL in phenol-red free DMEM and plated (100 μL) 96 well plates. 2-fold serial dilutions of 10× peptoid (11.1 μL) were added to each well in triplicate. Water (vehicle) was used as a negative control. Plates were incubated at 37° C. in 5% CO2 for 72 hours. Thiazolyl blue tetrazolium bromide (MTT) was added to each well (5 mg/mL; 20 μL) and incubated for 3 hours. Media was removed, DMSO (100 μL) was added, and plates were incubated at 37° C. for 10 minutes. Plates were read on a SPECTRAMAX M5 plate reader (Abs. 570 nm). The concentration of compound resulting in a 50% reduction in growth compared to control (toxicity dose 50%; TD50) was determined using GRAFIT. This procedure was repeated three times on separate days.

C. albicans = assay type: cell-based, Candida albicans; conditions: 24 h
From the text: as §1, §2

| Structure (SMILES) | MIC C. neoformans (C. neoformans) [µg/mL] | CC50 at 72 h (in vitro) [µg/mL] | MIC C. albicans (C. albicans) [µg/mL] |
| --- | --- | --- | --- |
| CCCCCCCCCCCCCNCC(=O)N(CCC)CC(=O)N(CC(=O)N(CCCCN)CC(=O)N(CC(=O)N(CC(=O)N(CCCN)CC(N)=O)Cc1ccccc1)Cc1ccco1)Cc1ccccc1 [Compound 911-M3] (H-[N(tridecyl)Gly][NPrGly][Nphe][Nlys][NFurfurylGly][Nphe][Gly(N(CH2)3NH2)]-NH2) | 1.56 (≈ 1.52 µM) | 87.5 ± 10.8 (≈ 85 µM) | 6.25 (≈ 6.07 µM) |
| CCCCCCCCCCCCCNCC(=O)N(CCC)CC(=O)N(CC(=O)N(CCCCN)CC(=O)N(CC(=O)N(CC(=O)N(CCCN)CC(N)=O)Cc1ccccc1)Cc1ccco1)Cc1ccc(F)cc1 [Compound 911-M4] (H-[N(tridecyl)Gly][NPrGly][N(4-F-Bzl)Gly][Nlys][NFurfurylGly][Nphe][Gly(N(CH2)3NH2)]-NH2) | 1.56 (≈ 1.49 µM) | 120 ± 36.9 (≈ 114 µM) | 6.25 (≈ 5.97 µM) |
| CCCCCCCCCCCCCNCC(=O)N(CCC)CC(=O)N(CC(=O)N(CCCCN)CC(=O)N(CC(=O)N(CC(=O)N(CCCN)CC(N)=O)Cc1ccccc1)Cc1ccco1)Cc1ccc(Cl)cc1 [Compound 911-M5] (H-[N(tridecyl)Gly][NPrGly][Gly(Nα-4-Cl-benzyl)][Nlys][NFurfurylGly][Nphe][Gly(N(CH2)3NH2)]-NH2) | 1.56 (≈ 1.47 µM) | 114 ± 32.5 (≈ 108 µM) | 6.25 to 12.5 |
| CCCCCCCCCCCCCNCC(=O)N(CCC)CC(=O)N(CC(=O)N(CCCCN)CC(=O)N(CC(=O)N(CC(=O)N(CCCN)CC(N)=O)Cc1ccccc1)Cc1ccco1)Cc1ccc(Br)cc1 [Compound 911-M6] (H-[N(tridecyl)Gly][NPrGly][N(4-Br-benzyl)Gly][Nlys][NFurfurylGly][Nphe][Gly(N(CH2)3NH2)]-NH2) | 1.56 to 3.13 | 108 ± 13.6 (≈ 97 µM) | 6.25 (≈ 5.64 µM) |
| CCCCCCCCCCCCCNCC(=O)N(CCC)CC(=O)N(CC(=O)N(CCCCN)CC(=O)N(CC(=O)N(CC(=O)N(CCCN)CC(N)=O)Cc1ccccc1)Cc1ccco1)Cc1ccco1 [Compound 911-M7] (H-[N(tridecyl)Gly][NPrGly][NFurfurylGly][Nlys][NFurfurylGly][Nphe][Gly(N(CH2)3NH2)]-NH2) | 3.13 (≈ 3.07 µM) | 187 ± 21.5 (≈ 183 µM) | 12.5 (≈ 12.3 µM) |
| CCCCCCCCCCCCCNCC(=O)N(CCC)CC(=O)N(CC(=O)N(CCCCN)CC(=O)N(CC(=O)N(CC(=O)N(CCCN)CC(N)=O)Cc1ccccc1)Cc1ccco1)Cc1cccs1 [Compound 911-M8] (H-[N(tridecyl)Gly][NPrGly][N(2-thienylmethyl)Gly][Nlys][NFurfurylGly][Nphe][Gly(N(CH2)3NH2)]-NH2) | – | 108 ± 34.6 (≈ 104 µM) | 6.25 (≈ 6.04 µM) |
| CCCCCCCCCCCCCNCC(=O)N(CCC)CC(=O)N(CC(=O)N(CCCCN)CC(=O)N(CC(=O)N(CC(=O)N(CCCN)CC(N)=O)Cc1ccccc1)Cc1ccco1)C1CCCCC1 [Compound 911-M9] (H-[N(tridecyl)Gly][NPrGly][Gly(N-cHex)][Nlys][NFurfurylGly][Nphe][Gly(N(CH2)3NH2)]-NH2) | 1.56 (≈ 1.53 µM) | 99.5 ± 22 (≈ 97.4 µM) | 12.5 (≈ 12.2 µM) |
| CCCCCCCCCCCCCNCC(=O)N(CCC)CC(=O)N(CC(=O)N(CCCCN)CC(=O)N(CC(=O)N(CC(=O)N(CCCN)CC(N)=O)Cc1ccccc1)Cc1ccco1)[C@@H](C)C1CCCCC1 [Compound 911-M11] (H-[N(tridecyl)Gly][NPrGly][N(1S-cyclohexylethyl)Gly][Nlys][NFurfurylGly][Nphe][Gly(N(CH2)3NH2)]-NH2) | 1.56 (≈ 1.49 µM) | 82.5 ± 11.5 (≈ 78.6 µM) | 3.13 to 6.25 |
| CCCCCCCCCCCCCC(=O)NCC(=O)N(CCN)CC(=O)N(CC(=O)N(CCCCN)CC(=O)N(CC(=O)N(CC(=O)N(CCCN)CC(N)=O)Cc1ccccc1)Cc1ccco1)[C@@H](C)C1CCCCC1 [Compound 911-M12] (Myristoyl-G[Gly(N-2-aminoethyl)][N(1S-cyclohexylethyl)Gly][Nlys][NFurfurylGly][Nphe][Gly(N(CH2)3NH2)]-NH2) | 3.13 (≈ 2.9 µM) | 145 ± 35 (≈ 134 µM) | 6.25 (≈ 5.8 µM) |
| CCCCCCCCCCCCCNCC(=O)N(CCN)CC(=O)N(CC(=O)N(CCCCN)CC(=O)N(CC(=O)N(CC(=O)N(CCCN)CC(N)=O)Cc1ccccc1)Cc1ccco1)[C@@H](C)C1CCCCC1 [Compound 911-M13] (H-[N(tridecyl)Gly][Gly(N-2-aminoethyl)][N(1S-cyclohexylethyl)Gly][Nlys][NFurfurylGly][Nphe][Gly(N(CH2)3NH2)]-NH2) | 3.13 (≈ 2.98 µM) | 140 ± 33 (≈ 133 µM) | 6.25 (≈ 5.95 µM) |
| CCCCCCCCCCCCCC(=O)NCC(=O)N(CCC)CC(=O)N(CC(=O)N(CCCCN)CC(=O)N(CC(=O)N(CCCn1ccnc1)CC(=O)N(CCCN)CC(N)=O)Cc1ccco1)C(C)c1ccccc1 (stereo not shown) [Compound 911-M14] (Myristoyl-G[NPrGly][X1][Nlys][NFurfurylGly][N(3-imidazol-1-ylpropyl)Gly][Gly(N(CH2)3NH2)]-NH2) | 6.25 to 12.5 | > 200 | 25 (≈ 22.9 µM) |
| CCCN(CC(=O)N(CC(=O)N(CCCCN)CC(=O)N(CC(=O)N(CC(=O)N(CCCN)CC(N)=O)Cc1ccccc1)Cc1ccco1)C(C)c1ccccc1)C(=O)CNC (stereo not shown) [SAR 1] (H-[Sar][NPrGly][X1][Nlys][NFurfurylGly][Nphe][Gly(N(CH2)3NH2)]-NH2) | – | > 200 | >100 |
| CCCCCCCCCCCCCNCC(=O)N(C)CC(=O)N(CC(=O)N(CCCCN)CC(=O)N(CC(=O)N(CC(=O)N(CCCN)CC(N)=O)Cc1ccccc1)Cc1ccco1)C(C)c1ccccc1 (stereo not shown) [SAR 2] (H-[N(tridecyl)Gly][Sar][X1][Nlys][NFurfurylGly][Nphe][Gly(N(CH2)3NH2)]-NH2) | – | 83.9 ± 5.7 (≈ 82.6 µM) | 12.5 (≈ 12.3 µM) |
| CCCCCCCCCCCCCNCC(=O)N(CCC)CC(=O)N(C)CC(=O)N(CCCCN)CC(=O)N(CC(=O)N(CC(=O)N(CCCN)CC(N)=O)Cc1ccccc1)Cc1ccco1 [SAR 3] (H-[N(tridecyl)Gly][NPrGly][Sar][Nlys][NFurfurylGly][Nphe][Gly(N(CH2)3NH2)]-NH2) | – | 194 ± 7.5 (≈ 204 µM) | 50 (≈ 52.5 µM) |
| CCCCCCCCCCCCCNCC(=O)N(CCC)CC(=O)N(CC(=O)N(C)CC(=O)N(CC(=O)N(CC(=O)N(CCCN)CC(N)=O)Cc1ccccc1)Cc1ccco1)C(C)c1ccccc1 (stereo not shown) [SAR 4] (H-[N(tridecyl)Gly][NPrGly][X1][Sar][NFurfurylGly][Nphe][Gly(N(CH2)3NH2)]-NH2) | – | 61.8 ± 16.1 (≈ 62.7 µM) | 6.25 (≈ 6.34 µM) |
| CCCCCCCCCCCCCNCC(=O)N(CCC)CC(=O)N(CC(=O)N(CCCCN)CC(=O)N(C)CC(=O)N(CC(=O)N(CCCN)CC(N)=O)Cc1ccccc1)C(C)c1ccccc1 (stereo not shown) [SAR 5] (H-[N(tridecyl)Gly][NPrGly][X1][Nlys][Sar][Nphe][Gly(N(CH2)3NH2)]-NH2) | – | 157 ± 10.1 (≈ 160 µM) | 12.5 to 25 |
| CCCCCCCCCCCCCNCC(=O)N(CCC)CC(=O)N(CC(=O)N(CCCCN)CC(=O)N(CC(=O)N(C)CC(=O)N(CCCN)CC(N)=O)Cc1ccco1)C(C)c1ccccc1 (stereo not shown) [SAR 6] (H-[N(tridecyl)Gly][NPrGly][X1][Nlys][NFurfurylGly][Sar][Gly(N(CH2)3NH2)]-NH2) | – | 156 ± 4.7 (≈ 161 µM) | 25 (≈ 25.8 µM) |
| CCCCCCCCCCCCCNCC(=O)N(CCC)CC(=O)N(CC(=O)N(CCCCN)CC(=O)N(CC(=O)N(CC(=O)N(C)CC(N)=O)Cc1ccccc1)Cc1ccco1)C(C)c1ccccc1 (stereo not shown) [SAR 7] (H-[N(tridecyl)Gly][NPrGly][X1][Nlys][NFurfurylGly][Nphe][Sar]-NH2) | – | 57.7 ± 11 (≈ 57.7 µM) | 6.25 (≈ 6.25 µM) |

Source: patent US20240391889A1, “ANTIMICROBIAL COMPOUNDS AND THE METHODS OF USE” (priority 2021, published 2024)
